Data: patent US20120029187A1, “HALOALKYLSULFONANILIDE DERIVATIVE” (Nissan Chemical Industries, Ltd., priority 2009, published 2012)

How the values were obtained:
Assay type in all cases: in vivo
bulrush [1] = test: Test Example 1: herbicidal effects in preemergence treatment under submerged conditions; conditions: dose 2.52 g/a
Method in brief: (§1)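 Scoring 0 (<5% mortality) to 5 (≥90%) was done three weeks after preemergence application to the water surface of submerged (4 cm) alluvial soil, doses given as g per are. Weeds were seeded and 2.5-leaf rice transplanted on the treatment day; greenhouse at 25–30 °C.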

barnyardgrass [2] = test: as above; conditions: dose 2.52 g/a
Method in brief: as §1

ducksalad [3] = test: as above; conditions: dose 2.52 g/a
Method in brief: as §1

transplanted rice = test: Test Example 1: preemergence treatment under submerged conditions, effect on crop; conditions: dose 2.52 g/a
Method in brief: as §1

bulrush [4] = test: Test Example 2: herbicidal effects during the vegetation period under submerged conditions; conditions: treatment during the vegetation period under submerged conditions; dose 2.52 g/a
Method in brief: (§2)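 Barnyardgrass, bulrush and ducksalad were co-sown in alluvial soil flooded to 4 cm and grown in a greenhouse at 25 to 30° C. At the 1- or 2-leaf stage, water-diluted emulsifiable concentrates went onto the water surface at set doses (g/a). Herbicidal effect was scored three weeks later on a graded scale.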

barnyardgrass [5] = test: as above; conditions: treatment during the vegetation period under submerged conditions; dose 2.52 g/a
Method in brief: as §2

ducksalad [6] = test: as above; conditions: treatment during the vegetation period under submerged conditions; dose 2.52 g/a
Method in brief: as §2

giant foxtail [7] = test: Test Example 4: herbicidal effect in foliage treatment; conditions: dose 3.2 g/a, three weeks after the application
Method in brief: (§3)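 Seeds were spot-sown in boxes of sterilized diluvial soil and raised in a greenhouse (25 to 30° C) for 14 days before a single foliar application. Compounds were applied as emulsifiable concentrates diluted with water, at predetermined doses in g/a. Injury was graded three weeks post-spray.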

velvetleaf [8] = test: as above; conditions: dose 3.2 g/a, three weeks after the application
Method in brief: as §3

posumbu knotweed = test: as above; conditions: dose 3.2 g/a, three weeks after the application
Method in brief: as §3

common chickweed [9] = test: as above; conditions: dose 3.2 g/a, three weeks after the application
Method in brief: as §3

water foxtail [10] = test: as above; conditions: dose 3.2 g/a, three weeks after the application
Method in brief: as §3

common lambsquater [11] = test: as above; conditions: dose 3.2 g/a, three weeks after the application
Method in brief: as §3

barnyardgrass [12] = test: as above; conditions: dose 3.2 g/a, three weeks after the application
Method in brief: as §3

large crabgrass [13] = test: as above; conditions: dose 3.2 g/a, three weeks after the application
Method in brief: as §3

Italian ryegrass [14] = test: as above; conditions: dose 3.2 g/a, three weeks after the application
Method in brief: as §3

redroot pigweed [15] = test: as above; conditions: dose 3.2 g/a, three weeks after the application
Method in brief: as §3

common ragweed [16] = test: as above; conditions: dose 3.2 g/a, three weeks after the application
Method in brief: as §3

giant foxtail [17] = test: Test Example 3: herbicidal effects in soil treatment; conditions: dose 3.2 g/a
Method in brief: (§4)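 Seeds were sown in sterilized diluvial soil and covered with about 1.5 cm of soil. Compounds, formulated as emulsifiable concentrates and diluted with water, were sprayed evenly over the soil surface at set doses in g/a. Herbicidal effect was scored on a rating scale three weeks later.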

velvetleaf [18] = test: as above; conditions: dose 3.2 g/a
Method in brief: as §4

common chickweed [19] = test: as above; conditions: dose 3.2 g/a
Method in brief: as §4

water foxtail [20] = test: as above; conditions: dose 3.2 g/a
Method in brief: as §4

common lambsquater [21] = test: as above; conditions: dose 3.2 g/a
Method in brief: as §4

barnyardgrass [22] = test: as above; conditions: dose 3.2 g/a
Method in brief: as §4

large crabgrass [23] = test: as above; conditions: dose 3.2 g/a
Method in brief: as §4

beadstraw = test: as above; conditions: dose 3.2 g/a
Method in brief: as §4

Italian ryegrass [24] = test: as above; conditions: dose 3.2 g/a
Method in brief: as §4

redroot pigweed [25] = test: as above; conditions: dose 3.2 g/a
Method in brief: as §4

common ragweed [26] = test: as above; conditions: dose 3.2 g/a
Method in brief: as §4

| SMILES | B: bulrush, herbicidal effect (evaluation scale 0-5) (bulrush [1]) | A: barnyardgrass, herbicidal effect (evaluation scale 0-5) (barnyardgrass [2]) | C: ducksalad, herbicidal effect (evaluation scale 0-5) (ducksalad [3]) | a: transplanted rice, effect on crop (evaluation scale 0-5) (transplanted rice) | B: bulrush, herbicidal effect (evaluation scale 0-5) (bulrush [4]) | A: barnyardgrass, herbicidal effect (evaluation scale 0-5) (barnyardgrass [5]) | C: ducksalad, herbicidal effect (evaluation scale 0-5) (ducksalad [6]) | E: giant foxtail, herbicidal effect (giant foxtail [7]) | I: velvetleaf, herbicidal effect (velvetleaf [8]) | M: posumbu knotweed, herbicidal effect (posumbu knotweed) | N: common chickweed, herbicidal effect (common chickweed [9]) | G: water foxtail, herbicidal effect (water foxtail [10]) | L: common lambsquater, herbicidal effect (common lambsquater [11]) | A: barnyardgrass, herbicidal effect (barnyardgrass [12]) | D: large crabgrass, herbicidal effect (large crabgrass [13]) | H: Italian ryegrass, herbicidal effect (Italian ryegrass [14]) | K: redroot pigweed, herbicidal effect (redroot pigweed [15]) | J: common ragweed, herbicidal effect (common ragweed [16]) | other results |
| --- | --- | --- | --- | --- | --- | --- | --- | --- | --- | --- | --- | --- | --- | --- | --- | --- | --- | --- | --- |
| CCOC(=O)N(c1ccccc1CN1COC2(CCCC2)C(Br)C1=O)S(=O)(=O)C(F)(F)F (stereo not shown) [II-77] | 5 (mortality of 90% or above (nearly complete death)) | 5 (mortality of 90% or above (nearly complete death)) | 5 (mortality of 90% or above (nearly complete death)) | 0 (mortality of less than 5% (almost ineffective)) | 5 (mortality of 90% or above (nearly complete death)) | 0 (mortality of less than 5% (almost ineffective)) | 4 (mortality of at least 70% and less than 90%) | 1 (mortality of at least 5% and less than 20%) | 3 (mortality of at least 40% and less than 70%) | 3 (mortality of at least 40% and less than 70%) | 3 (mortality of at least 40% and less than 70%) | 5 (mortality of 90% or above (nearly complete death)) | 4 (mortality of at least 70% and less than 90%) | 4 (mortality of at least 70% and less than 90%) | 1 (mortality of at least 5% and less than 20%) | 0 (mortality of less than 5% (almost ineffective)) | 3 (mortality of at least 40% and less than 70%) | 3 (mortality of at least 40% and less than 70%) | herbicidal effect, E: giant foxtail (giant foxtail [17]): 1 (mortality of at least 5% and less than 20%); herbicidal effect, I: velvetleaf (velvetleaf [18]): 5 (mortality of 90% or above (nearly complete death)); herbicidal effect, N: common chickweed (common chickweed [19]): 4 (mortality of at least 70% and less than 90%); herbicidal effect, G: water foxtail (water foxtail [20]): 3 (mortality of at least 40% and less than 70%); herbicidal effect, L: common lambsquater (common lambsquater [21]): 5 (mortality of 90% or above (nearly complete death)); herbicidal effect, A: barnyardgrass (barnyardgrass [22]): 4 (mortality of at least 70% and less than 90%); herbicidal effect, D: large crabgrass (large crabgrass [23]): 5 (mortality of 90% or above (nearly complete death)); herbicidal effect, O: beadstraw (beadstraw): 0 (mortality of less than 5% (almost ineffective)); herbicidal effect, H: Italian ryegrass (Italian ryegrass [24]): 1 (mortality of at least 5% and less than 20%); herbicidal effect, K: redroot pigweed (redroot pigweed [25]): 4 (mortality of at least 70% and less than 90%); herbicidal effect, J: common ragweed (common ragweed [26]): 0 (mortality of less than 5% (almost ineffective)) |
| CCC(=O)N(c1ccccc1CN1C(=O)CC(C)(C)OC1C)S(=O)(=O)C(F)(F)F (stereo not shown) [II-73] | 5 (mortality of 90% or above (nearly complete death)) | 5 (mortality of 90% or above (nearly complete death)) | 5 (mortality of 90% or above (nearly complete death)) | 3 (mortality of at least 40% and less than 70%) | 5 (mortality of 90% or above (nearly complete death)) | 5 (mortality of 90% or above (nearly complete death)) | 5 (mortality of 90% or above (nearly complete death)) | 4 (mortality of at least 70% and less than 90%) | 5 (mortality of 90% or above (nearly complete death)) | 4 (mortality of at least 70% and less than 90%) | 2 (mortality of at least 20% and less than 40%) | 5 (mortality of 90% or above (nearly complete death)) | 0 (mortality of less than 5% (almost ineffective)) | 5 (mortality of 90% or above (nearly complete death)) | 4 (mortality of at least 70% and less than 90%) | 5 (mortality of 90% or above (nearly complete death)) | 0 (mortality of less than 5% (almost ineffective)) | 2 (mortality of at least 20% and less than 40%) | E: giant foxtail, herbicidal effect (evaluation scale 0-5) (giant foxtail [17]): 5 (mortality of 90% or above (nearly complete death)); I: velvetleaf, herbicidal effect (evaluation scale 0-5) (velvetleaf [18]): 5 (mortality of 90% or above (nearly complete death)); N: common chickweed, herbicidal effect (evaluation scale 0-5) (common chickweed [19]): 0 (mortality of less than 5% (almost ineffective)); G: water foxtail, herbicidal effect (evaluation scale 0-5) (water foxtail [20]): 5 (mortality of 90% or above (nearly complete death)); L: common lambsquater, herbicidal effect (evaluation scale 0-5) (common lambsquater [21]): 0 (mortality of less than 5% (almost ineffective)); A: barnyardgrass, herbicidal effect (evaluation scale 0-5) (barnyardgrass [22]): 5 (mortality of 90% or above (nearly complete death)); D: large crabgrass, herbicidal effect (evaluation scale 0-5) (large crabgrass [23]): 5 (mortality of 90% or above (nearly complete death)); O: beadstraw, herbicidal effect (evaluation scale 0-5) (beadstraw): 4 (mortality of at least 70% and less than 90%); H: Italian ryegrass, herbicidal effect (evaluation scale 0-5) (Italian ryegrass [24]): 5 (mortality of 90% or above (nearly complete death)); K: redroot pigweed, herbicidal effect (evaluation scale 0-5) (redroot pigweed [25]): 0 (mortality of less than 5% (almost ineffective)); J: common ragweed, herbicidal effect (evaluation scale 0-5) (common ragweed [26]): 3 (mortality of at least 40% and less than 70%) |
